Laboratory results: US20260226493A1, “HERBICIDE RESISTANT PLANTS” (SYNGENTA CROP PROTECTION AG, priority 2023, published 2026)

Key:
Format in all cases: biochemical
[1] = biological target: T1, Arabidopsis thaliana BIO3-BIO1 (BioDA) mutants (Arabidopsis thaliana, UniProt B0F481, G513P); test: BIO3-BIO1 mutant enzyme activity in the presence of herbicide, percentage inhibition (fluorometric DAPA assay); details: read-out: percentage inhibition
T1 construct: with the predicted N-terminal mitochondrial transit peptide removed; 6xHis-tag (N); thrombin cleavage site (N); made in house; host or cells: E. coli BL21 (DE3) bioA
Description: (§1) A pet-24 plasmid containing a DNA sequence encoding each identified variant mutant of BIO3-BIO1 derived from Arabidopsis thaliana from example 5 above, as shown in Table 13 below and as shown in full in SEQ ID NOs: 15 to 155, codon-optimised for expression in E. coli, with an N-terminal 6×His-tag and thrombin cleavage site and under control of a T7 promoter, and was synthesised by Twist Bioscience, in a similar manner to SEQ ID NO:311. These plasmids were then expressed in E. coli BL21 (DE3) bioA with 50 μg/mL kanamycin and 25 μg/mL chloramphenicol selection. Overnight cultures grown at 37° C. were used to inoculate 8×500 mL AIM in shake flasks at a ratio of 1:100. Cultures were grown at 37° C., 200 rpm for 3.5 hours and then overnight at 20° C. Cells were harvested by centrifugation for 30 minutes at 10 000 g. Cells were stored at −80° C. until extraction. 30 g of cell pellet from was thawed in 120 mL of IMAC buffer A (20 mM HEPES pH7.5, 25 mM imidazole, 500 mM sodium chloride, 0.15 mM pyridoxal phosphate, 0.5 mM TCEP, 1× complete Protease Inhibitor Tablet (Roche)). The resuspension was passed through a cell disrupter at 18 000 PSI and centrifuged at 50 000 g for 25 minutes at 4° C. The His-tagged BIO3-BIO1 protein was purified from the extract supernatant on an AKTA avant chromatography system (Cytiva) using a HisTrap FF column and eluted in IMAC buffer B ((20 mM HEPES pH7.5, 500 mM imidazole, 500 mM sodium chloride, 0.15 mM pyridoxal phosphate, 0.5 mM TCEP) followed by SEC using a HiLoad 26/60 Superdex200 column in SEC buffer (25 mM HEPES pH7.5, 150 mM sodium chloride, 0.15 mM pyridoxal phosphate, 0.5 mM TCEP). Protein concentration was measured and calculated using the absorbance at 280 nm. Extracts were diluted 1 in 4 and 10 uL was analysed by SDS PAGE.
(§2) To measure BIO3-BIO1 mutant enzyme activity in the presence of herbicide, herbicides were incubated with 20 μL of enzyme mix (100 mM EPPS pH 8.6, 0.1 mM pyridoxal phosphate, 0.1 mg/mL BSA, 50 nM BIO3-BIO1 enzyme) for 10 minutes at 20° C. in a well of a 96-well half-area black plate, followed by the addition of 20 μL of substrate mix (final concentration of 100 mM EPPS pH 8.6, 0.1 mM pyridoxal phosphate, 0.1 mg/mL BSA, 100 μM spermidine, 20 μM KAPA, 100 mM NaCO3) and further incubation for 75 minutes at 20° C. The reaction was terminated by the addition of 50 μL of derivatisation mix (final concentration of 250 mM borate NaOH pH 9.4, 3.6 mM o-phthalaldehyde, 7 mM β-mercaptoethanol, 17% (v/v) ethanol, 3.6% (v/v) methanol). The fluorescent product produced by the reaction of DAPA with o-phthalaldehyde and 7 mM β-mercaptoethanol was measured at 470 nm after excitation at 410 nm. The percentage inhibition was calculated as the activity in the presence of one of three concentrations of each herbicide compound A to M (note that the compounds labelled as A to M are identified hereinabove in the relevant section of the description) as a percentage of the activity in DMSO (Table 12 and 13). The percentage activity versus WT was also calculated and is shown in Table 13 and 14 (NT indicates mutation not tested in table 13, note that these mutations are tested at different compound concentrations for compounds L, M and C, and the results are shown in table 14).

[2] = biological target: T2, Arabidopsis thaliana BIO3-BIO1 (BioDA) mutants (Arabidopsis thaliana, UniProt B0F481, S509V); test: as above; details: read-out: percentage inhibition
T2 construct: with the predicted N-terminal mitochondrial transit peptide removed; 6xHis-tag (N); thrombin cleavage site (N); made in house; host or cells: E. coli BL21 (DE3) bioA
Description: as §1, §2

[3] = biological target: T3, Arabidopsis thaliana BIO3-BIO1 (BioDA) mutants (Arabidopsis thaliana, UniProt B0F481, G610H); test: as above; details: read-out: percentage inhibition
T3 construct: with the predicted N-terminal mitochondrial transit peptide removed; 6xHis-tag (N); thrombin cleavage site (N); made in house; host or cells: E. coli BL21 (DE3) bioA
Description: as §1, §2

[4] = biological target: T4, Arabidopsis thaliana BIO3-BIO1 (BioDA) mutants (Arabidopsis thaliana, UniProt B0F481, R790C); test: as above; details: read-out: percentage inhibition
T4 construct: with the predicted N-terminal mitochondrial transit peptide removed; 6xHis-tag (N); thrombin cleavage site (N); made in house; host or cells: E. coli BL21 (DE3) bioA
Description: as §1, §2

[5] = biological target: T5, Arabidopsis thaliana BIO3-BIO1 (BioDA) mutants (Arabidopsis thaliana, UniProt B0F481, T512Q); test: as above; details: read-out: percentage inhibition
T5 construct: with the predicted N-terminal mitochondrial transit peptide removed; 6xHis-tag (N); thrombin cleavage site (N); made in house; host or cells: E. coli BL21 (DE3) bioA
Description: as §1, §2

[6] = biological target: T6, Arabidopsis thaliana BIO3-BIO1 (BioDA) mutants (Arabidopsis thaliana, UniProt B0F481, T512I); test: as above; details: read-out: percentage inhibition
T6 construct: with the predicted N-terminal mitochondrial transit peptide removed; 6xHis-tag (N); thrombin cleavage site (N); made in house; host or cells: E. coli BL21 (DE3) bioA
Description: as §1, §2

[7] = test system: Tenacibaculum adriaticum BioA; test: BioA enzyme activity with DMSO or herbicide in vitro; details: spermidine in substrate mix
Description: as §1, §2
(§3) Protein of Escherichia coli BioA (SEQ ID NO:159), Pantoea ananatis BioA (SEQ ID NO:167), Streptomyces viridochromogenes BioA (SEQ ID NO:170), Cryptosporidium andersoni BioA (SEQ ID NO:160), Stenotrophomonas maltophilia BioA (SEQ ID NO:171), Chroococcidiopsis BioA (SEQ ID NO:184), Pedobacter hartonius BioA (SEQ ID NO:181), Chitinophaga filiformis BioA (SEQ ID NO:180), Tenacibaculum adriaticum BioA (SEQ ID NO:185) and Bacillus subtilis BioA (SEQ ID NO:166) was prepared using the method in Example 6. BioA enzyme activity in the presence of herbicide or DMSO in vitro for each of the proteins was assayed according to the enzyme assay method in Example 6, except in some reactions spermidine was replaced with 2 mM S-Adenosyl methionine.

Pantoea ananatis BioA = test: as above; details: SAM in substrate mix
Description: as §1, §2, §3

Escherichia coli BioA = biological target: T7, Escherichia coli BioA (Escherichia coli, UniProt P12995); test: as above; details: SAM in substrate mix, read-out: % Inhibition relative to DMSO treatment
T7 construct: 6xHis-tag (N); thrombin cleavage site (N); made in house; host or cells: E. coli BL21 (DE3) bioA
Description: as §1, §2, §3

T2 sequence (B0F481 23-833 S509V): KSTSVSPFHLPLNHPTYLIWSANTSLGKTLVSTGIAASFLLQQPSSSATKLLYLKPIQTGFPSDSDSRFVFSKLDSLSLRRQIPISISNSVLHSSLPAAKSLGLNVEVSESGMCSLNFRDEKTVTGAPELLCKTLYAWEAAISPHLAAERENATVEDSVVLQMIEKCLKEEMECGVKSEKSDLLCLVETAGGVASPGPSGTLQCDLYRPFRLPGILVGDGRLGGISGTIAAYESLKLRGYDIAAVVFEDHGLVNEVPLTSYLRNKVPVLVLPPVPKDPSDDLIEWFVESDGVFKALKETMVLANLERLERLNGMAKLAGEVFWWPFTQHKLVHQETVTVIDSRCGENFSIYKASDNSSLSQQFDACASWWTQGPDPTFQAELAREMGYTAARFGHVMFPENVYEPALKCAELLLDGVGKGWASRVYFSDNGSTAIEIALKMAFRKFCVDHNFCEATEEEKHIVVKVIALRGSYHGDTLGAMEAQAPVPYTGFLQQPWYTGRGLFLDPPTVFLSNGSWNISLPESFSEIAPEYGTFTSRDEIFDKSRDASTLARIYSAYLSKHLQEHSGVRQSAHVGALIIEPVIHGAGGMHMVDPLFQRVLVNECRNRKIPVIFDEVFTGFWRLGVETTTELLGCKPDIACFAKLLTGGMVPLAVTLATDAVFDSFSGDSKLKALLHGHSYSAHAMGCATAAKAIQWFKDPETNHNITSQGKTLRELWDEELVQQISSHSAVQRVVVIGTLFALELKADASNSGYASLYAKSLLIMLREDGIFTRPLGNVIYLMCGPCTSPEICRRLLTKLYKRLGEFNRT
T6 sequence (B0F481 23-833 T512I): as the sequence (B0F481 23-833 S509V) above, with V487S, T490I counted along it
T7 sequence (P12995 whole entry): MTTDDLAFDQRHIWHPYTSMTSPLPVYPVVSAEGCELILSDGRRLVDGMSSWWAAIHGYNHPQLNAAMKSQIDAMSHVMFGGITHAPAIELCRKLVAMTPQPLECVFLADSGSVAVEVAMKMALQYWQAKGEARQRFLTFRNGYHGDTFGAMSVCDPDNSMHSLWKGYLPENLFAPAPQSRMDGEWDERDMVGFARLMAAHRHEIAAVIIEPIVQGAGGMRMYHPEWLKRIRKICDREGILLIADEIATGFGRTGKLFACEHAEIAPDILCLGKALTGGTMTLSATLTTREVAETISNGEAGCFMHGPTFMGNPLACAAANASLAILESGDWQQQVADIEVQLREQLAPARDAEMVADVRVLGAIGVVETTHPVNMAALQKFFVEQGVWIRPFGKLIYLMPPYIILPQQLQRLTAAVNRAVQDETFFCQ
T3 sequence (B0F481 23-833 G610H): as the sequence (B0F481 23-833 S509V) above, with V487S, G588H counted along it
T4 sequence (B0F481 23-833 R790C): as the sequence (B0F481 23-833 S509V) above, with V487S, R768C counted along it
T1 sequence (B0F481 23-833 G513P): as the sequence (B0F481 23-833 S509V) above, with V487S, G491P counted along it
T5 sequence (B0F481 23-833 T512Q): as the sequence (B0F481 23-833 S509V) above, with V487S, T490Q counted along it

What does the source list for `CCOC(=O)c1nn(-c2ccc3c(c2)OC(F)(F)C(F)(F)O3)c2cccc(C(C)=O)c2c1=O` [Compound A, ethyl 5-acetyl-4-oxo-1-(2,2,3,3-tetrafluoro-1,4-benzodioxin-6-yl)cinnoline-3-carboxylate]?
inhibition at 1 µM [1]: 63%; inhibition at 1 µM [2]: 6%; inhibition at 1 µM [3]: 10%; inhibition at 1 µM [4]: 2%; inhibition at 1 µM [5]: 49%; inhibition at 1 µM [6]: 37%; % Inhibition relative to DMSO treatment ([7]; 25 μM): 14%; % Inhibition relative to DMSO treatment (Pantoea ananatis BioA; 25 μM): 7%; inhibition at 25 µM (Escherichia coli BioA; 25 μM): 6%

For `CC(O)C(N)CCCCC(=O)O.Cl` (stereo not drawn) [Compound B, [5-carboxy-1-(1-hydroxyethyl)pentyl]ammonium chloride], which “% Inhibition relative to DMSO treatment” value ([7]; 200 μM) is on record?
The value was 18%.

What about the “% Inhibition relative to DMSO treatment” value (Pantoea ananatis BioA; 200 μM) of the same compound?
The value was 15%.

And the inhibition at 31 µM (Escherichia coli BioA)?
Its inhibition at 31 µM is 4%.

And the inhibition at 200 µM (Escherichia coli BioA)?
Its inhibition at 200 µM is 9%.

What about the inhibition at 500 µM (Escherichia coli BioA) of the same compound?
The inhibition at 500 µM was 23%.

How did the inhibition at 0.2 µM [1] turn out when `CCn1c(C)c(-c2ccc(F)cc2F)c(=O)c(C(=O)O)c1-c1ccc(Cl)c(Cl)c1` [Compound C, 2-(3,4-dichlorophenyl)-5-(2,4-difluorophenyl)-1-ethyl-6-methyl-4-oxo-pyridine-3-carboxylic acid] was run?
The inhibition at 0.2 µM was 52%.

What about the inhibition at 1 µM [1] of the same compound?
The inhibition at 1 µM was 95%.

And the inhibition at 5 µM [1]?
Its inhibition at 5 µM is 99%.

And the inhibition at 0.2 µM [2]?
Its inhibition at 0.2 µM is 17%.

What about the inhibition at 1 µM [2] of the same compound?
Its inhibition at 1 µM is 30%.

What about the inhibition at 5 µM [2] of the same compound?
Its inhibition at 5 µM is 94%.

And the inhibition at 0.2 µM [3]?
Its inhibition at 0.2 µM is 19%.

And the inhibition at 1 µM [3]?
Its inhibition at 1 µM is 58%.

And the inhibition at 5 µM [3]?
Its inhibition at 5 µM is 82%.

What about the inhibition at 0.2 µM [4] of the same compound?
Its inhibition at 0.2 µM is 0%.

And the inhibition at 1 µM [4]?
Its inhibition at 1 µM is 11%.

And the inhibition at 5 µM [4]?
Its inhibition at 5 µM is 62%.

What about the inhibition at 0.2 µM [5] of the same compound?
The inhibition at 0.2 µM was 53%.

What about the inhibition at 1 µM [5] of the same compound?
Its inhibition at 1 µM is 96%.

What about the inhibition at 5 µM [5] of the same compound?
The inhibition at 5 µM was 100%.

What about the inhibition at 0.2 µM [6] of the same compound?
The inhibition at 0.2 µM was 60%.

And the inhibition at 1 µM [6]?
The inhibition at 1 µM was 96%.

What about the inhibition at 5 µM [6] of the same compound?
Its inhibition at 5 µM is 99%.

What about the “% Inhibition relative to DMSO treatment” value ([7]; 0.5 μM) of the same compound?
The value was 19%.

What about the “% Inhibition relative to DMSO treatment” value (Pantoea ananatis BioA; 0.5 μM) of the same compound?
Its value is 11%.

And the inhibition at 0.5 µM (Escherichia coli BioA)?
The inhibition at 0.5 µM was 8%.

With `CCn1c(C)c(-c2cc(OC(F)(F)F)ccc2Cl)c(=O)c(C(=O)O)c1-c1ccc(Cl)c(Cl)c1` [Compound D, 5-[2-chloro-5-(trifluoromethoxy)phenyl]-2-(3,4-dichlorophenyl)-1-ethyl-6-methyl-4-oxo-pyridine-3-carboxylic acid] as the compound, how does the “% Inhibition relative to DMSO treatment” value ([7]; 0.5 μM) read?
The value was 5%.

And the “% Inhibition relative to DMSO treatment” value (Pantoea ananatis BioA; 0.5 μM)?
The value was 6%.

What about the inhibition at 0.5 µM (Escherichia coli BioA) of the same compound?
The inhibition at 0.5 µM was 6%.

With `C[C@@H](N)COc1cccc(C(=O)O)n1.Cl.Cl` [Compound E, [(1R)-2-(6-carboxypyridin-1-ium-2-yl)oxy-1-methyl-ethyl]ammonium dichloride] as the compound, how does the “% Inhibition relative to DMSO treatment” value ([7]; 200 μM) read?
Its value is 16%.

And the “% Inhibition relative to DMSO treatment” value (Pantoea ananatis BioA; 200 μM)?
The value was 15%.

And the inhibition at 200 µM (Escherichia coli BioA)?
The inhibition at 200 µM was 12%.

Which results are given for `CCn1c(Cn2ccc(C(F)(F)F)n2)cc(=O)c(C(=O)O)c1-c1ccc(Cl)c(Cl)c1` [Compound L, 2-(3,4-dichlorophenyl)-1-ethyl-4-oxo-6-[[3-(trifluoromethyl)pyrazol-1-yl]methyl]pyridine-3-carboxylic acid]?
inhibition at 0.01 µM [1]: 5%; inhibition at 0.075 µM [1]: 46%; inhibition at 0.5 µM [1]: 86%; inhibition at 0.01 µM [3]: 7%; inhibition at 0.075 µM [3]: 18%; inhibition at 0.5 µM [3]: 65%; % Inhibition relative to DMSO treatment ([7]; 0.5 μM): 16%; % Inhibition relative to DMSO treatment (Pantoea ananatis BioA; 0.5 μM): 9%; % Inhibition relative to DMSO treatment (Pantoea ananatis BioA; 31 μM): 0%; % Inhibition relative to DMSO treatment (Pantoea ananatis BioA; 500 μM): 23%; inhibition at 0.5 µM (Escherichia coli BioA): 4%; inhibition at 31 µM (Escherichia coli BioA): 8%; inhibition at 500 µM (Escherichia coli BioA): 35%

Which results are given for `CCn1c(-c2ccc(Cl)c(Cl)c2)c(C(=O)O)c(=O)c2cc(F)ccc21` [Compound M, 2-(3,4-dichlorophenyl)-1-ethyl-6-fluoro-4-oxo-quinoline-3-carboxylic acid]?
inhibition at 0.2 µM [1]: 52%; inhibition at 1 µM [1]: 83%; inhibition at 5 µM [1]: 97%; inhibition at 0.2 µM [2]: 22%; inhibition at 1 µM [2]: 26%; inhibition at 5 µM [2]: 88%; inhibition at 0.2 µM [3]: 26%; inhibition at 1 µM [3]: 59%; inhibition at 5 µM [3]: 84%; inhibition at 0.2 µM [4]: 0%; inhibition at 1 µM [4]: 9%; inhibition at 5 µM [4]: 49%; inhibition at 0.2 µM [5]: 49%; inhibition at 1 µM [5]: 91%; inhibition at 5 µM [5]: 99%; inhibition at 0.2 µM [6]: 48%; inhibition at 1 µM [6]: 85%; inhibition at 5 µM [6]: 96%; % Inhibition relative to DMSO treatment ([7]; 0.5 μM): 13%; % Inhibition relative to DMSO treatment (Pantoea ananatis BioA; 0.5 μM): 11%; inhibition at 0.5 µM (Escherichia coli BioA): 0%
